Measurements as given in US11427605B2, “Crystalline forms of 5-chloro-N4-[-2-(dimethylphosphoryl) phenyl]-N2-{2-methoxy-4-[4-(4-methylpiperazin-1-yl) piperidin-1-yl] phenyl} pyrimidine-2,4-diamine” (ARIAD Pharmaceuticals, Inc., priority 2014, dated 2022).
Converted amounts (≈) assume the structure as drawn. “And” between values parts separate entries of the source, which are not always exact repeats. Equal entries are not always repeated.

What was measured:
Format in all cases: physicochemical
[1] = Vapor diffusion into solution experiments; details: solvent Cis-Decahydronaphthalene, anti-solvent vapor MethylCyclohexane, room temperature, two weeks; dry
Experimental: For the vapor diffusion into solution experiments, saturated solutions of brigatinib were exposed to anti-solvent vapors at room temperature for two weeks. An aliquot of saturated solution was transferred to a vial which was left open and placed in a closed container with anti solvent (see Table 20). After two weeks, the samples were evaluated for solid formation. Where solids were present, the liquids were separated from the solids, which were then dried at full vacuum. In the cases where no precipitation was observed, the solvents were placed overnight at 5° C. to promote precipitation. If no solids were present, the liquids were evaporated at 200 mbar for 75 hours, or, if still no solids were present, the liquids were further evaporated at 10 mbar for a maximum of 10 days. All obtained solids were analyzed dry by XRPD and digital imaging.

[2] = Thermocycling experiments; details: thermocycling 5-40° C., 8 cycles
Experimental: A total of 33 slurries and 1 solution (chloroform) of starting material in solvents were prepared at room temperature. The mixtures were placed in a Crystal16™ to undergo the following temperature profile:
1. Heating at a rate of 5° C./h until reaching 40° C., with stirring (500 rpm)
2. Cooling at a rate of 5° C./h until 5° C., with stirring (200 rpm)
3. Aging for 30 min at 5° C.
After completion of the cycling program, the solids were separated from the mother liquids by centrifugation, dried under 200 mbar for 48 hours (2-ethoxyethanol for 283 hours) and analyzed by XRPD and digital imaging. For the applied crystallization conditions and corresponding obtained solid forms, see Table 24. Solid form (or mixture) following the arrow (→) was obtained upon remeasurement by XRPD after storage of the measuring plates at ambient conditions for 5 weeks.

[3] = Crash crystallization with anti-solvent addition
Experimental: In the crash-crystallization experiments, 34 different crystallization conditions were applied, using 6 different solvents and 24 different anti-solvents (see Table 17). The anti-solvent addition experiments were performed forward. For each solvent, a stock solution was prepared, the concentration of brigatinib in each case being that attained at saturation at ambient temperature after equilibration for 24 hours before filtering.
For each experiment, the anti-solvent was added to each solvent vial, with a solvent to anti-solvent ratio of 1:0.25. In the cases where no precipitation occurred, this ratio was increased to 1:1, and if again no precipitation occurred the ratio was increased to 1:4, with a waiting time of 60 minutes between the additions (up to the third addition) and 35 minutes between the third addition and fourth addition. When no crystallization occurred or not enough solids precipitated for separation, samples were kept at 5° C. for 17 hours. The precipitated solids were separated from the liquids by centrifugation and decantation. When decantation could not be applied, the liquid was carefully removed using Pasteur's pipettes. The solids were dried at 200 mbar for 17 hours and analyzed by XRPD and digital imaging. In the cases where no precipitation occurred, the solvents were evaporated at 200 mbar for 17 hours prior to lowering the vacuum to 5 mbar. All obtained solids were analyzed by XRPD and digital imaging. The measuring plates containing the final solid were stored at ambient temperature for 5 weeks. The solid form was assessed again by XRPD. The arrows in Table 18 indicate if the form changed during storage.

[4] = Quantitative solubility testing, set of 24 solvents (HPLC); details: for solubility at 24 h: 20 °C
Experimental: Quantitative solubility testing was performed on brigatinib starting material, employing a set of 24 solvents (DMSO, heptane and water were performed in triplicate). In a vial, about 40 mg of starting material, 400 μL of solvent and a stir bar were added. After stirring for 24 h at 20° C. […], the liquid was retrieved, filtered, and analyzed for API content by HPLC.

[5] = Freeze-drying feasibility study; details: organic solvent or mixture, thermodynamic from solid, data obtained from freeze drying experiment
Experimental: Freeze-drying. Six freeze-drying experiments were performed with samples of Form A as described in Table 10. Samples 1, 2, and 4 remained mostly crystalline, but samples 3 and 5 were amorphous and contained about 15-16% residual solvent. Sample 6 was amorphous and contained about 7% residual solvent. Forms E and F were produced using this method. However, due to the variable form and solvation, freeze-drying was not further employed to obtain amorphous brigatinib.

[6] = Slurry experiments at 20° C. and 40° C.; details: slurry 40° C., Chloroform; the solids dissolved after 14 days
Experimental: A total of 68 slurry experiments were performed with brigatinib both at room temperature (20° C.) and 40° C., using 34 solvents. In all cases, a solvent volume of 250 μL was used. The slurries were stirred for two weeks. At the end of the slurry time, the vials were centrifuged and solids and mother liquids separated. The solids were analyzed wet and dry by XRPD and digital imaging. The measuring plates were then stored at ambient conditions for 3-4 weeks and another XRPD was obtained of the solid, any form change is shown by an arrow.

Form (XRPD) [1]: Am
Form mother liquid (XRPD) ([2]; Chloroform): A + G
Form mother liquid (XRPD) ([2]; n-Heptane): A + L
Form (XRPD) ([3]; solvent 1,4-Dioxane, anti-solvent Water, S:AS 1:4, no precipitation): A + H
Form (XRPD) ([3]; solvent Chloroform, anti-solvent tert-Butyl methyl ether, S:AS 1:4, precipitation, wet): A + G
Form (XRPD) ([3]; solvent Ethanol, anti-solvent Water, S:AS 1:4, no precipitation): A + H
solubility at 24 h ([4]; 1,2-dichloroethane, organic solvent or mixture, thermodynamic from solid, 1,2-Dichloroethane): 38300 µg/mL (≈ 65600 µM)
solubility at 24 h ([4]; 1,2-dimethoxyethane, organic solvent or mixture, thermodynamic from solid, 1,2-Dimethoxyethane): 1130 µg/mL (≈ 1930 µM)
solubility at 24 h ([4]; 1,4-dioxane, organic solvent or mixture, thermodynamic from solid, 1,4-Dioxane): 4010 µg/mL (≈ 6870 µM)
solubility at 24 h ([4]; 1-butanol, organic solvent or mixture, thermodynamic from solid): 17700 µg/mL (≈ 30400 µM)
solubility at 24 h ([4]; 2-butanone, organic solvent or mixture, thermodynamic from solid): 1110 µg/mL (≈ 1900 µM)
solubility ([4]; Dimethyl Sulfoxide, 20° C., 24 h, triplicate): 3020 µg/mL and 3050 µg/mL
solubility ([4]; Ethyl Formate, 20° C., 24 h): 990 µg/mL (≈ 1690 µM)
solubility at 24 h ([4]; N,N-dimethylacetamide, organic solvent or mixture, thermodynamic from solid): 470 µg/mL (≈ 805 µM)
solubility at 24 h ([4]; acetone, organic solvent or mixture, thermodynamic from solid): 690 µg/mL (≈ 1180 µM)
solubility at 24 h ([4]; acetonitrile, organic solvent or mixture, thermodynamic from solid): 360 µg/mL (≈ 616 µM)
solubility at 24 h ([4]; butyl acetate, organic solvent or mixture, thermodynamic from solid): 320 µg/mL (≈ 548 µM)
solubility at 24 h ([4]; chloroform, organic solvent or mixture, thermodynamic from solid, sample dissolved, no solids harvested): > 182000 µg/mL
solubility at 24 h ([4]; cyclohexane, organic solvent or mixture, thermodynamic from solid, UR = under range): < 10 µg/mL
solubility at 24 h ([4]; dichloromethane, organic solvent or mixture, thermodynamic from solid, sample dissolved, no solids harvested): > 197000 µg/mL
solubility at 24 h ([4]; dimethyl sulfoxide, organic solvent or mixture, thermodynamic from solid, triplicate): 2950 µg/mL (≈ 5050 µM)
solubility at 24 h ([4]; ethanol, organic solvent or mixture, thermodynamic from solid): 6710 µg/mL (≈ 11500 µM)
solubility at 24 h ([4]; ethyl acetate, organic solvent or mixture, thermodynamic from solid): 420 µg/mL (≈ 719 µM)
solubility at 24 h ([4]; isopropanol, organic solvent or mixture, thermodynamic from solid): 1550 µg/mL (≈ 2650 µM)
solubility at 24 h ([4]; isopropyl acetate, organic solvent or mixture, thermodynamic from solid, UR = under range): < 10 µg/mL
solubility at 24 h ([4]; methanol, organic solvent or mixture, thermodynamic from solid): 35300 µg/mL (≈ 60500 µM)
solubility at 24 h ([4]; n-heptane, organic solvent or mixture, thermodynamic from solid, triplicate, UR = under range): < 10 µg/mL
solubility at 24 h ([4]; nitromethane, organic solvent or mixture, thermodynamic from solid): 410 µg/mL (≈ 702 µM)
solubility at 24 h ([4]; p-xylene, organic solvent or mixture, thermodynamic from solid): 350 µg/mL (≈ 599 µM)
Residual solids after solubility testing, form by XRPD ([4]; set of 24 solvents, 20° C., 24 h): Form A
solubility at 24 h ([4]; tetrahydrofuran, organic solvent or mixture, thermodynamic from solid, UR = under range): < 10 µg/mL
solubility at 24 h ([4]; water, thermodynamic from solid, triplicate): 90 µg/mL (≈ 154 µM)
solubility ([5]; 2,2,2-trifluoroethanol/water (80:20)): > 159000 µg/mL
solubility ([5]; 2,2,2-trifluoroethanol/water (90:10)): > 172000 µg/mL
solubility ([5]; 2,2,2-trifluoroethanol): > 224000 µg/mL
Form dry (XRPD) [6]: A + E
Structure (SMILES): COc1cc(N2CCC(N3CCN(C)CC3)CC2)ccc1Nc1ncc(Cl)c(Nc2ccccc2P(C)(C)=O)n1 [Brigatinib]
